According to publication PMC8037161 (International Journal of Molecular Sciences, 2021):
Like-named read-outs stand apart in the source and are kept apart here.

Tests used:
recombinant human DHFR [1] = biological target: T1, recombinant human DHFR (Homo sapiens, UniProt P00374); set-up: method as in PMID 31892256; conditions: previously synthesized TMP analogs A–F; cited from earlier work
T1 construct: purchased
T1 sequence (P00374 1-187): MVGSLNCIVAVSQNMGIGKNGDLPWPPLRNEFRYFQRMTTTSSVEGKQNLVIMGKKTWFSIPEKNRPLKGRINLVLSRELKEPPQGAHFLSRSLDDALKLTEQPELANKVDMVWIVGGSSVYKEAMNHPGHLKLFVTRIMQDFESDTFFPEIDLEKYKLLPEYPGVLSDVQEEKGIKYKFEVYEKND

pBR322 plasmid [2] = conditions: cited from earlier work; for DNA-binding activity expressed as % decrease of fluorescence: previous study
T4 coliphage DNA [3] = assay: Ethidium displacement assay, apparent binding constant, T4 coliphage DNA; conditions: apparent association constant, ± 0.2 × 10^5 M^−1
Excerpt: The values of binding constants in the range of 0.7–6.4 × 10^5 M^−1 for T4 coliphage DNA for derivatives 1–18 was evidence of their minor-groove selectivity, because the major groove of T4 coliphage DNA is blocked by a-glycosylation of the 5-(hydroxymethyl)cytidine residues. […] All of the compounds bound to AT-rich sequences weaker than netropsin but some of them bound stronger to GC-rich sequences, e.g., compounds 3, 6, and 10.
(§1) The fluorescence of DNA solutions (calf thymus DNA, T4 coliphage DNA, poly(dA-dT)2 and poly(dG-dC)2 with the investigated compound (final concentrations 10, 50, 100 μM) was measured by fluorescence spectrophotometer Infinite M200 TECAN at room temperature according to the procedure described above. The determination of DNA-binding constants was described in previous articles. The apparent binding constant was calculated from KEtBr [EtBr] = Kapp [drug], where [drug] = the concentration of the tested compound at 50% reduction of fluorescence and KEtBr and [EtBr] are known. The results are reported as a percentage of fluorescence decreases in Table 1.

calf thymus DNA [4] = assay: Ethidium displacement assay, apparent binding constant, calf thymus DNA; conditions: apparent association constant, ± 0.2 × 10^5 M^−1
Experimental: as §1

[5] = tested on: poly(dG-dC)2 (DNA, polymer) GC; assay: ethidium bromide displacement, fluorescence; conditions: apparent; room temperature; ethidium bromide displaced; compound 10, 50, 100 µM
poly(dA-dT)2 [6] = assay: Ethidium displacement assay, apparent binding constant, poly(dA-dT)2; conditions: apparent association constant, ± 0.2 × 10^5 M^−1
Experimental: as §1

recombinant human DHFR [7] = biological target: T1, recombinant human DHFR; assay: Dihydrofolate reductase (DHFR) inhibition assay; type: biochemical; conditions: assay kit
[8] = tested on: poly(dA-dT)2 (DNA, polymer) AT; assay: ethidium bromide displacement, fluorescence; conditions: apparent; room temperature; ethidium bromide displaced; compound 10, 50, 100 µM
pBR322 plasmid [9] = assay: Ethidium bromide assay, DNA-binding effect on plasmid pBR322; conditions: % fluorescence relative to controls
Excerpt: Fluorescence readings are reported as % fluorescence relative to the controls.

poly(dG-dC)2 [10] = assay: Ethidium displacement assay, apparent binding constant, poly(dG-dC)2; conditions: apparent association constant, ± 0.2 × 10^5 M^−1
Experimental: as §1

T4 coliphage DNA [11] = tested on: T4 coliphage DNA; set-up: method as in earlier work; conditions: reference values; KEtBr known (ref 25, 47); NT ref 48 (table row: ref 45); cited from earlier work
calf thymus DNA [12] = tested on: calf thymus DNA; set-up: method as in earlier work; conditions: reference values; KEtBr known (ref 25, 47); NT ref 48 (table row: ref 45); cited from earlier work
poly(dG-dC)2 [13] = tested on: poly(dG-dC)2; set-up: method as in earlier work; conditions: reference values; KEtBr known (ref 25, 47); NT ref 48 (table row: ref 45); cited from earlier work
poly(dA-dT)2 [14] = tested on: poly(dA-dT)2; set-up: method as in earlier work; conditions: reference values; KEtBr known (ref 25, 47); NT ref 48 (table row: ref 45); cited from earlier work

| Structure (SMILES) | DNA-binding activity expressed as % decrease of fluorescence (pBR322 plasmid [2]) | Kapp T4 DNA (T4 coliphage DNA [3]) | Kapp Calf Thymus DNA (calf thymus DNA [4]) | Kapp [5] | Kapp Poly (dA-dT)2 (poly(dA-dT)2 [6]) | IC50 (recombinant human DHFR [7]) | Kapp [8] | Decrease of Fluorescence (pBR322 plasmid [9]) | Kapp poly (dG-dC)2 (poly(dG-dC)2 [10]) | Kapp T4 DNA (T4 coliphage DNA [11]) | Kapp Calf Thymus DNA (calf thymus DNA [12]) | Kapp poly (dG-dC)2 (poly(dG-dC)2 [13]) | Kapp Poly (dA-dT)2 (poly(dA-dT)2 [14]) | further results |
| --- | --- | --- | --- | --- | --- | --- | --- | --- | --- | --- | --- | --- | --- | --- |
| COc1ccc(CC(=O)Nc2cnc(N)nc2)c(OC)c1OC [B] | 45.18% | – | – | – | – | – | – | – | – | – | – | – | – | IC50 (recombinant human DHFR [1]): 0.99 µM |
| COc1cc(CCC(=O)Nc2cnc(N)nc2)cc(OC)c1OC [C] | 69.92% | – | – | – | – | – | – | – | – | – | – | – | – | – |
| COc1cc(/C=C/C(=O)Nc2ccc(F)c(N)c2)cc(OC)c1OC [Compound 17] | – | 290000 M⁻¹ | 180000 M⁻¹ | 2.5 ± 0.2 × 10^5 M^−1 | 50000 M⁻¹ | 1.22 ± 0.05 µM | 0.5 ± 0.2 × 10^5 M^−1 | 41.68% | 250000 M⁻¹ | – | – | – | – | – |
| COc1cc(/C=C/C(=O)Nc2ccc(N)c(I)c2)cc(OC)c1OC [Compound 18] | – | 640000 M⁻¹ | 580000 M⁻¹ | 4.6 ± 0.2 × 10^5 M^−1 | 450000 M⁻¹ | 2.09 ± 0.04 µM | 4.5 ± 0.2 × 10^5 M^−1 | 42.99% | 460000 M⁻¹ | – | – | – | – | – |
| CC[n+]1c(-c2ccccc2)c2cc(N)ccc2c2ccc(N)cc21 [EtBr, Ethidium bromide] | – | – | – | – | – | – | – | 100% | – | 1e+07 M⁻¹ | 1e+07 M⁻¹ | 9.9e+06 M⁻¹ | 95^b* × 10^5 M^−1 | – |
| Cn1cc(NC(=O)c2cc(NC(=O)CN=C(N)N)cn2C)cc1C(=O)NCCC(=N)N [NT, netropsin] | – | – | – | – | – | 20.56 ± 0.01 µM | – | – | – | 830000 M⁻¹ | 870000 M⁻¹ | 250000 M⁻¹ | 8.75e+07 M⁻¹ | Decrease of Fluorescence (DNA-binding effect) (pBR322 plasmid [2]; pBR322 plasmid, same conditions, 48 (table row: ref 45)): 74% |
